# What was measured:
# [1] = system: beet armyworm (BAW; Spodoptera exigua: Lepidoptera); assay: 128-well diet tray assay on beet armyworm (BAW 50); assay type: in vivo; conditions: for BAW 50 ug/cm2: 128-well diet tray assay, 50 μg/cm^2 of test compound on diet, second instar BAW larvae, mortality class; for pest or weed control at 50 µg/cm2, 50 µg/cm2: Spodoptera exigua, 144 h, read-out: BAW 50 ug/cm2
# In short: (§1)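 In the HTS format, eggs were placed on diet surface-treated with 12 μg compound per well, held dark at 29° C, and scored for mortality at 6 d (mean of six replicates). The tray format used three to five second instar larvae on diet treated at 50 μg/cm^2, 25° C, 14:10 light-dark, six days, averaged over eight wells.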
# [2] = system: beet armyworm (BAW; Spodoptera exigua: Lepidoptera); assay: 96-well microtiter plate-based high throughput (HTS) diet bioassay on beet armyworm (BAW HTS); assay type: in vivo; conditions: for BAW HTS: BAW eggs, 12 μg test compound per well, mortality at 6 d post-treatment, mortality class; for pest or weed control at 12 µg/well, 12 µg/well: Spodoptera exigua, 144 h, read-out: BAW HTS
# In short: as §1
# [3] = 96-well microtiter plate HTS diet assay
SMILES,BAW 50 ug/cm2 [1],BAW HTS ([2]; 96-well HTS diet assay),"BAW HTS [2, 3]","pest or weed control at 50 µg/cm2, 50 µg/cm2 [1] [%]","pest or weed control at 12 µg/well, 12 µg/well [2] [%]"
CO[C@@H]1[C@@H](OC)[C@H](C)O[C@@H](OC(=O)Nc2ccc(C3=NN(c4cccc(Cl)c4)CC3)cc2)[C@@H]1OC [Compound 172],A (the compound was tested and at least 50 percent mortality was observed),B (either (1) the compound was tested and less than 50 percent mortality was observed or (2) the compound was not tested),B (either (1) the compound was tested and less than 50 percent mortality was observed or (2) the compound was not tested),,
CO[C@@H]1[C@@H](OC)[C@H](C)O[C@@H](OC(=O)Nc2ccc(-c3cn(-c4ccc(OC(F)(F)F)cc4)cn3)cc2)[C@@H]1OC [Compound 173],A (the compound was tested and at least 50 percent mortality was observed),A (the compound was tested and at least 50 percent mortality was observed),A (the compound was tested and at least 50 percent mortality was observed),,
CO[C@@H]1[C@@H](OC)[C@H](C)O[C@H](OC(=O)Nc2ccc(-c3cn(-c4ccc(OC(F)(F)F)cc4)cn3)cc2)[C@@H]1OC [Compound 174],A (the compound was tested and at least 50 percent mortality was observed),A (the compound was tested and at least 50 percent mortality was observed),A (the compound was tested and at least 50 percent mortality was observed),,
CCCCO[C@@H]1[C@@H](OC)[C@H](C)O[C@@H](OC(=O)Nc2ccc(-c3cn(-c4ccc(OC(F)(F)F)cc4)cn3)cc2)[C@@H]1OC [Compound 175],A (the compound was tested and at least 50 percent mortality was observed),A (the compound was tested and at least 50 percent mortality was observed),A (the compound was tested and at least 50 percent mortality was observed),,
CO[C@@H]1[C@@H](OC)[C@H](C)O[C@@H](OC(=S)Nc2ccc(-c3cn(-c4ccc(OC(F)(F)F)cc4)cn3)cc2)[C@@H]1OC [Compound 176],A (the compound was tested and at least 50 percent mortality was observed),,B (either (1) the compound was tested and less than 50 percent mortality was observed or (2) the compound was not tested),> 50,< 50
CCO[C@@H]1[C@@H](OC)[C@H](C)O[C@@H](SC(=O)Nc2ccc(-c3cn(-c4ccc(OC(F)(F)F)cc4)cn3)cc2)[C@@H]1OC [Compound 177],B (either (1) the compound was tested and less than 50 percent mortality was observed or (2) the compound was not tested),,A (the compound was tested and at least 50 percent mortality was observed),< 50,> 50
CCO[C@@H]1[C@@H](OC)[C@H](C)O[C@@H](OC(=O)Nc2ccc(C3=NN(c4ccc(OC(F)(F)F)cc4)CC3)cc2)[C@@H]1OC [Compound 178],A (the compound was tested and at least 50 percent mortality was observed),B (either (1) the compound was tested and less than 50 percent mortality was observed or (2) the compound was not tested),B (either (1) the compound was tested and less than 50 percent mortality was observed or (2) the compound was not tested),,
CCO[C@@H]1[C@@H](OC)[C@H](C)O[C@@H](OC(=O)Nc2ccc(C3=NN(c4ccc(OC(F)(F)C(F)(F)F)cc4)CC3)cc2)[C@@H]1OC [Compound 179],A (the compound was tested and at least 50 percent mortality was observed),B (either (1) the compound was tested and less than 50 percent mortality was observed or (2) the compound was not tested),B (either (1) the compound was tested and less than 50 percent mortality was observed or (2) the compound was not tested),,
CCO[C@@H]1[C@@H](OC)[C@H](C)O[C@@H](OC(=O)Nc2ccc(C3=NOC(c4ccc(C(F)(F)F)cc4)C3)cc2)[C@@H]1OC (some centres unmarked) [Compound 181],A (the compound was tested and at least 50 percent mortality was observed),A (the compound was tested and at least 50 percent mortality was observed),A (the compound was tested and at least 50 percent mortality was observed),,
CCO[C@@H]1[C@@H](OC)[C@H](C)O[C@H](OC(=O)Nc2ccc(C3=NOC(c4ccc(C(F)(F)F)cc4)C3)cc2)[C@@H]1OC (some centres unmarked) [Compound 182],B (either (1) the compound was tested and less than 50 percent mortality was observed or (2) the compound was not tested),B (either (1) the compound was tested and less than 50 percent mortality was observed or (2) the compound was not tested),B (either (1) the compound was tested and less than 50 percent mortality was observed or (2) the compound was not tested),,
CCO[C@@H]1[C@@H](OC)[C@H](C)O[C@@H](OC(=O)Nc2ccc(C3CC(c4ccc(OC(F)(F)F)cc4)=NO3)cc2)[C@@H]1OC (some centres unmarked) [Compound 183],A (the compound was tested and at least 50 percent mortality was observed),A (the compound was tested and at least 50 percent mortality was observed),A (the compound was tested and at least 50 percent mortality was observed),,
CCO[C@@H]1[C@@H](OC)[C@H](C)O[C@H](OC(=O)Nc2ccc(C3CC(c4ccc(OC(F)(F)F)cc4)=NO3)cc2)[C@@H]1OC (some centres unmarked) [Compound 184],B (either (1) the compound was tested and less than 50 percent mortality was observed or (2) the compound was not tested),B (either (1) the compound was tested and less than 50 percent mortality was observed or (2) the compound was not tested),B (either (1) the compound was tested and less than 50 percent mortality was observed or (2) the compound was not tested),,
CCO[C@@H]1[C@@H](OC)[C@H](C)O[C@@H](OC(=O)Nc2ccc(C3=NCC(c4ccc(OC(F)(F)F)cc4)O3)cc2)[C@@H]1OC (some centres unmarked) [Compound 185],B (either (1) the compound was tested and less than 50 percent mortality was observed or (2) the compound was not tested),B (either (1) the compound was tested and less than 50 percent mortality was observed or (2) the compound was not tested),B (either (1) the compound was tested and less than 50 percent mortality was observed or (2) the compound was not tested),,
CCO[C@@H]1[C@@H](OC)[C@H](C)O[C@@H](OC(=O)Nc2ccc(C3COC(c4ccc(OC(F)(F)F)cc4)=N3)cc2)[C@@H]1OC (some centres unmarked) [Compound 186],A (the compound was tested and at least 50 percent mortality was observed),B (either (1) the compound was tested and less than 50 percent mortality was observed or (2) the compound was not tested),B (either (1) the compound was tested and less than 50 percent mortality was observed or (2) the compound was not tested),,
CCO[C@@H]1[C@@H](OC)[C@H](C)O[C@@H](OC(=O)Nc2ccc(-n3ccn(-c4ccc(OC(F)(F)F)cc4)c3=O)cc2)[C@@H]1OC [Compound 187],A (the compound was tested and at least 50 percent mortality was observed),A (the compound was tested and at least 50 percent mortality was observed),A (the compound was tested and at least 50 percent mortality was observed),,
CCO[C@@H]1[C@@H](OC)[C@H](C)O[C@@H](OC(=O)Nc2ccc(N3CCN(c4ccc(OC(F)(F)F)cc4)C3=O)cc2)[C@@H]1OC [Compound 188],A (the compound was tested and at least 50 percent mortality was observed),B (either (1) the compound was tested and less than 50 percent mortality was observed or (2) the compound was not tested),B (either (1) the compound was tested and less than 50 percent mortality was observed or (2) the compound was not tested),,
"CO[C@@H]1[C@@H](OC)[C@H](C)O[C@@H](OC(=O)Nc2ccc(-n3cnc(-c4ccc(C(F)(F)F)cc4)n3)cc2Cl)[C@@H]1OC [Compound 189, {2-chloro-4-[3-(4-trifluoromethylphenyl)-[1,2,4]triazol-1-yl]-phenyl}-carbamic acid (2S,3R,4R,5S,6S)-3,4,5-trimethoxy-6-methyl-tetrahydropyran-2-yl ester]",A (the compound was tested and at least 50 percent mortality was observed),,A (the compound was tested and at least 50 percent mortality was observed),> 50,> 50
"CO[C@@H]1[C@@H](OC)[C@H](C)O[C@H](OC(=O)Nc2ccc(-n3cnc(-c4ccc(C(F)(F)F)cc4)n3)cc2Cl)[C@@H]1OC [Compound 190, {2-chloro-4-[3-(4-trifluoromethylphenyl)-[1,2,4]triazol-1-yl]-phenyl}-carbamic acid (2R,3R,4R,5S,6S)-3,4,5-trimethoxy-6-methyl-tetrahydropyran-2-yl ester]",A (the compound was tested and at least 50 percent mortality was observed),,A (the compound was tested and at least 50 percent mortality was observed),> 50,> 50
"CO[C@@H]1[C@@H](OC)[C@H](C)O[C@@H](OC(=O)Nc2ccc(-c3ncn(-c4ccc(OC(F)(F)F)cc4)n3)cc2)[C@@H]1OC [Compound 191, {4-[1-(4-trifluoromethoxyphenyl)-1H-[1,2,4]triazol-3-yl]-phenyl}-carbamic acid (2S,3R,4R,5S,6S)-3,4,5-trimethoxy-6-methyl-tetrahydropyran-2-yl ester]",A (the compound was tested and at least 50 percent mortality was observed),,A (the compound was tested and at least 50 percent mortality was observed),> 50,> 50

# Source: patent US8178658B2 (Dow AgroSciences, LLC, priority 2008, dated 2012)
